Source: article PMC8389807 (Journal of Medicinal Chemistry, 2021)
Read-outs that look alike come from different tables or passages of the source.

Key:
[1] = tested on: BrCr Lab Strain of EV-A71; experiment: Antiviral activity against the BrCr lab strain of EV-A71 in RD cells (CPE reduction, MTS/PMS); format: cell-based; conditions: Enterovirus A
HIV-1 (NL4.3) [2] = experiment: microbe, parasite or virus in culture; format: cell-based; conditions: MT-4 cells, 50% reduction of virus-induced cytopathic effect
HIV-2 (ROD) = experiment: Anti-HIV-2 activity in MT-4 cells (CPE, MTS/PES); format: cell-based
in vitro [3] = conditions: human
in vitro [4] = conditions: human; remark: listed apart in the source
[5] = tested on: EV71 genogroup B2 strain 11316; experiment: microbe, parasite or virus in culture; format: cell-based; conditions: Enterovirus A, genogroup B2, strain 11316, RD cells
[6] = tested on: EV71 genogroup B5 strain TW/70902/08; experiment: microbe, parasite or virus in culture; format: cell-based; conditions: Enterovirus A, genogroup B5, strain TW/70902/08, RD cells
[7] = tested on: EV71 genogroup C2 strain H08300 461#812; experiment: microbe, parasite or virus in culture; format: cell-based; conditions: Enterovirus A, genogroup C2, strain H08300 461#812, RD cells
[8] = tested on: EV71 genogroup C4 strain TW/1956/05; experiment: microbe, parasite or virus in culture; format: cell-based; conditions: Enterovirus A, genogroup C4, strain TW/1956/05, RD cells
HIV = tested on: HIV; parameters: method as in PMID 26513643, PMID 31809045; conditions: Figure 1, earlier prototypes; cited from earlier work
EV71 = tested on: EV71; parameters: method as in PMID 27246775, PMID 31809045; conditions: Figure 1, earlier prototypes; cited from earlier work
[9] = Cytotoxicity in MT-4 cells (MTS/PES); conditions: human
HIV-1 (NL4.3) [10] = experiment: microbe, parasite or virus in culture; format: cell-based; conditions: CXCR4-tropic strain, PBMC; for EC50: read-out: HIV-1 (NL4.3) EC50
HIV-1 (Ba-L) = experiment: microbe, parasite or virus in culture; format: cell-based; conditions: read-out: HIV-1 (Ba-L) EC50, CCR5-tropic strain, PBMC
[11] = EVA71, RD, BrCr lab strain, RD cells, 50% reduction of virus-induced CPE, read-out: EC50
[12] = Human immunodeficiency virus 1, MT4
[13] = Human immunodeficiency virus 2, MT4, MT-4 cells, 50% reduction of virus-induced cytopathic effect, read-out: HIV-2 (ROD) EC50

## O=C(CCOCC(COCCC(=O)NC(Cc1c[nH]c2c(-c3cc(C(=O)O)cc(C(=O)O)c3)cccc12)C(=O)O)(COCCC(=O)NC(Cc1c[nH]c2c(-c3cc(C(=O)O)cc(C(=O)O)c3)cccc12)C(=O)O)COCCC(=O)NC(Cc1c[nH]c2c(-c3cc(C(=O)O)cc(C(=O)O)c3)cccc12)C(=O)O)NC(Cc1c[nH]c2c(-c3cc(C(=O)O)cc(C(=O)O)c3)cccc12)C(=O)O (stereo not shown) [Compound 23]
[1]; [11]
  EC50: 300 ± 40 nM
HIV-1 (NL4.3) [2]; [12]
  EC50: 20 ± 10 nM
HIV-2 (ROD); [13]
  EC50: 20 ± 20 nM
In vitro [3]
  CC50: > 55000 nM
In vitro [4]
  CC50 at 120 h: 75000 nM

## O=C(CCC(CCC(=O)NC(Cc1c(-c2cccc(C(=O)O)c2)[nH]c2ccccc12)C(=O)O)(CCC(=O)NC(Cc1c(-c2cccc(C(=O)O)c2)[nH]c2ccccc12)C(=O)O)[N+](=O)[O-])NC(Cc1c(-c2cccc(C(=O)O)c2)[nH]c2ccccc12)C(=O)O (stereo not shown) [I, reference compound]
HIV-1 (NL4.3) [2]; [12]
  EC50: 16000 ± 5700 nM
HIV-2 (ROD); [13]
  EC50: 64000 ± 28000 nM
In vitro [4]
  CC50: > 100000 nM

## O=C(CCC(CCC(=O)NC(Cc1c(-c2cc(C(=O)O)cc(C(=O)O)c2)[nH]c2ccccc12)C(=O)O)(CCC(=O)NC(Cc1c(-c2cc(C(=O)O)cc(C(=O)O)c2)[nH]c2ccccc12)C(=O)O)[N+](=O)[O-])NC(Cc1c(-c2cc(C(=O)O)cc(C(=O)O)c2)[nH]c2ccccc12)C(=O)O (stereo not shown) [AL-470, reference compound]
[1]; [11]
  EC50: 300 ± 30 nM
[1]; EVA71, RD, genogroup A, BrCr, RD cells (clinical isolate panel), read-out: EC50
  EC50: 353 ± 31 nM
[5]
  EC50: 179 ± 11 nM
[6]
  EC50: 81 ± 13 nM
[7]
  EC50: 57 ± 0.2 nM
[8]
  EC50: 38 ± 3 nM
HIV-1 (NL4.3) [2]; [12]
  EC50: 300 ± 100 nM
HIV-2 (ROD); [13]
  EC50: 600 ± 800 nM
HIV
  EC50: 270 ± 120 nM
EV71
  EC50: 350 ± 30 nM

## O=C(CCOCC(COCCC(=O)NC(Cc1c(-c2cccc(C(=O)O)c2)[nH]c2ccccc12)C(=O)O)(COCCC(=O)NC(Cc1c(-c2cccc(C(=O)O)c2)[nH]c2ccccc12)C(=O)O)COCCC(=O)NC(Cc1c(-c2cccc(C(=O)O)c2)[nH]c2ccccc12)C(=O)O)NC(Cc1c(-c2cccc(C(=O)O)c2)[nH]c2ccccc12)C(=O)O (stereo not shown) [III, reference compound]
HIV-1 (NL4.3) [2]; [12]
  EC50: 2000 ± 600 nM
HIV-2 (ROD); [13]
  EC50: 800 ± 500 nM
In vitro [4]
  CC50: > 100000 nM

## O=C(CCOCC(COCCC(=O)NC(Cc1c(-c2ccc(C(=O)O)cc2)[nH]c2ccccc12)C(=O)O)(COCCC(=O)NC(Cc1c(-c2ccc(C(=O)O)cc2)[nH]c2ccccc12)C(=O)O)COCCC(=O)NC(Cc1c(-c2ccc(C(=O)O)cc2)[nH]c2ccccc12)C(=O)O)NC(Cc1c(-c2ccc(C(=O)O)cc2)[nH]c2ccccc12)C(=O)O (stereo not shown) [IV, reference compound]
HIV-1 (NL4.3) [2]; [12]
  EC50: 700 ± 500 nM
HIV-2 (ROD); [13]
  EC50: 700 ± 800 nM
In vitro [4]
  CC50: > 100000 nM

## O=C(CCC(CCC(=O)NC(Cc1c(-c2ccc(C(=O)O)cc2)[nH]c2ccccc12)C(=O)O)(CCC(=O)NC(Cc1c(-c2ccc(C(=O)O)cc2)[nH]c2ccccc12)C(=O)O)[N+](=O)[O-])NC(Cc1c(-c2ccc(C(=O)O)cc2)[nH]c2ccccc12)C(=O)O (stereo not shown) [II, reference compound]
HIV-1 (NL4.3) [2]; [12]
  EC50: 2400 ± 1300 nM
HIV-2 (ROD); [13]
  EC50: > 71000 nM
In vitro [4]
  CC50: 71000 nM

## NC(Cc1c(-c2cc(C(=O)O)cc(C(=O)O)c2)[nH]c2c(-c3cc(C(=O)O)cc(C(=O)O)c3)cc(-c3cc(C(=O)O)cc(C(=O)O)c3)cc12)C(=O)O (stereo not shown) [Compound 37, 5,5′,5″-(3-(2-Amino-2-carboxyethyl)-1H-indole-2,5,7-triyl)triisophthalic Acid]
[1]; EVA71, RD
  EC50: > 90000 nM
HIV-1 (NL4.3) [2]; [12]
  EC50: > 100000 nM
HIV-2 (ROD); Human immunodeficiency virus 2, MT4, read-out: HIV-2 (ROD) EC50
  EC50: > 100000 nM
[9]
  CC50 at 5 days: > 100000 nM

## O=C(CCOCC(COCCC(=O)NC(Cc1c[nH]c2c(-c3ccc(C(=O)O)cc3)cccc12)C(=O)O)(COCCC(=O)NC(Cc1c[nH]c2c(-c3ccc(C(=O)O)cc3)cccc12)C(=O)O)COCCC(=O)NC(Cc1c[nH]c2c(-c3ccc(C(=O)O)cc3)cccc12)C(=O)O)NC(Cc1c[nH]c2c(-c3ccc(C(=O)O)cc3)cccc12)C(=O)O (stereo not shown) [Compound 22]
[1]; [11]
  EC50: 1700 ± 400 nM
HIV-1 (NL4.3) [2]; [12]
  EC50: 6500 ± 2500 nM
HIV-2 (ROD); [13]
  EC50: 400 ± 300 nM
In vitro [3]
  CC50: > 100000 nM
In vitro [4]
  CC50: > 100000 nM

## O=C(CCC(CCC(=O)NC(Cc1c[nH]c2c(-c3cccc(C(=O)O)c3)cccc12)C(=O)O)(CCC(=O)NC(Cc1c[nH]c2c(-c3cccc(C(=O)O)c3)cccc12)C(=O)O)[N+](=O)[O-])NC(Cc1c[nH]c2c(-c3cccc(C(=O)O)c3)cccc12)C(=O)O (stereo not shown) [Compound 14]
[1]; [11]
  EC50: 54800 ± 34100 nM
HIV-1 (NL4.3) [2]; [12]
  EC50: 45100 ± 10200 nM
HIV-2 (ROD); [13]
  EC50: > 30000 nM
In vitro [3]
  CC50: > 84000 nM
In vitro [4]
  CC50: > 100000 nM

## CN[C@@H]1[C@H](O[C@@H]2OC[C@@H](O)[C@H](O)[C@H]2O)[C@@H](O)[C@H](O[C@H]2c3cc(C)c(C(=O)N[C@H](C)C(=O)O)c(O)c3-c3c(cc4c(c3O)C(=O)c3cc(OC)cc(O)c3C4=O)[C@@H]2O)O[C@@H]1C [PRM-A, pradimicin A, reference compound]
HIV-1 (NL4.3) [2]; [12]
  EC50: 3300 ± 1200 nM
HIV-2 (ROD); [13]
  EC50: 5900 ± 3700 nM
[9]
  CC50 at 5 days: > 100000 nM

## O=C(CCOCC(COCCC(=O)NC(Cc1c[nH]c2c(-c3cccc(C(=O)O)c3)cccc12)C(=O)O)(COCCC(=O)NC(Cc1c[nH]c2c(-c3cccc(C(=O)O)c3)cccc12)C(=O)O)COCCC(=O)NC(Cc1c[nH]c2c(-c3cccc(C(=O)O)c3)cccc12)C(=O)O)NC(Cc1c[nH]c2c(-c3cccc(C(=O)O)c3)cccc12)C(=O)O (stereo not shown) [Compound 21]
[1]; [11]
  EC50: 3100 ± 1100 nM
HIV-1 (NL4.3) [2]; [12]
  EC50: 14100 ± 600 nM
HIV-2 (ROD); [13]
  EC50: 7900 ± 900 nM

## O=C(CCOCC(COCCC(=O)NC(Cc1c(-c2ccc(C(=O)O)cc2)[nH]c2c(-c3ccc(C(=O)O)cc3)cccc12)C(=O)O)(COCCC(=O)NC(Cc1c(-c2ccc(C(=O)O)cc2)[nH]c2c(-c3ccc(C(=O)O)cc3)cccc12)C(=O)O)COCCC(=O)NC(Cc1c(-c2ccc(C(=O)O)cc2)[nH]c2c(-c3ccc(C(=O)O)cc3)cccc12)C(=O)O)NC(Cc1c(-c2ccc(C(=O)O)cc2)[nH]c2c(-c3ccc(C(=O)O)cc3)cccc12)C(=O)O (stereo not shown) [Compound 32]
[1]; [11]
  EC50: 100 ± 20 nM
HIV-1 (NL4.3) [2]; [12]
  EC50: 200 ± 200 nM
HIV-2 (ROD); [13]
  EC50: 20 ± 20 nM
In vitro [3]
  CC50: > 100000 nM
In vitro [4]
  CC50: > 100000 nM

## dextran sulfate-5000 [DS-5000, reference compound]
HIV-1 (NL4.3) [2]
  EC50: 70 ± 20 nM
HIV-2 (ROD); MT-4 cells, 50% reduction of virus-induced cytopathic effect, read-out: HIV-2 (ROD) EC50
  EC50: 30 ± 10 nM

## O=C(CCC(CCC(=O)NC(Cc1c[nH]c2c(-c3cc(C(=O)O)cc(C(=O)O)c3)cccc12)C(=O)O)(CCC(=O)NC(Cc1c[nH]c2c(-c3cc(C(=O)O)cc(C(=O)O)c3)cccc12)C(=O)O)[N+](=O)[O-])NC(Cc1c[nH]c2c(-c3cc(C(=O)O)cc(C(=O)O)c3)cccc12)C(=O)O (stereo not shown) [Compound 16]
[1]; [11]
  EC50: 1200 ± 200 nM
HIV-1 (NL4.3) [2]; [12]
  EC50: 400 ± 200 nM
HIV-2 (ROD); [13]
  EC50: 1900 ± 400 nM

## maraviroc
HIV-1 (NL4.3) [10]
  HIV-1 (NL4.3) EC50: insensitive
  EC50: > 1000 nM
HIV-1 (Ba-L)
  EC50: 4.48 nM

## CCOC(=O)c1ccc(OCCC2CCN(c3ccc(C)nn3)CC2)cc1 [pirodavir, reference compound]
[1]; EVA71, BrCr lab strain, RD cells, 50% reduction of virus-induced CPE, read-out: EC50
  EC50: 300 ± 100 nM
In vitro [3]
  CC50 at 3 days: > 100000 nM

## c1cc(CN2CCCNCCNCCCNCC2)ccc1CN1CCCNCCNCCCNCC1 [AMD3100]
HIV-1 (NL4.3) [10]; Human immunodeficiency virus 1
  EC50: 3.57 ng/mL
HIV-1 (Ba-L); Human immunodeficiency virus 1, BAL
  EC50: > 1000 ng/mL
